Among the data in patent publication US10577378B2, “EIF4A-inhibiting compounds and methods related thereto” (eFFECTOR Therapeutics, Inc., priority 2015, dated 2020) are IC50 values, retold here.

Counter-ions that a name gives are not always drawn. Like-named read-outs stand apart in the source and are kept apart here. Some results are limits rather than exact numbers.

This assay concerns MDA-MB-231 human breast cancer cells. Nature of the assay: Cell proliferation assay (CellTiter-Glo, 72 hours treatment). The note with it: Homo sapiens, read-out: MDA-MB-231 cell proliferation assay (IC50). Format: cell-based. An outline of the steps:
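MDA-MB-231 cells seeded at 2,500 cells/well, treated next day with compound or DMSO vehicle for 72 h at 37 °C. Proliferation read by CellTiter-Glo; IC50 from sigmoidal non-linear regression, binned as +++ (<100 nM), ++ (100–1000 nM), + (>1000 nM).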

[1] abbreviates: MDA-MB-231 cells, 72 hours at 37° C., CellTiter-Glo.

Regarding `COc1cncc2c1[C@]1(O)[C@@H](CNCc3ccncc3)[C@H](CO)[C@@H](c3ccccc3)[C@]1(c1ccc(Br)cc1)O2` (racemic) [187F, Rac-(4bR,5R,6R,7S,7aR)-7a-(4-bromophenyl)-6-(hydroxymethyl)-4-methoxy-7-phenyl-5-(((pyridin-4-ylmethyl)amino)methyl)-5,6,7,7a-tetrahydro-4bH-cyclopenta[4,5]furo[2,3-c]pyridin-4b-ol], the IC50 under setting [1] was under 100 nM.

In the case of `COc1nc(C#N)cc2c1[C@]1(O)[C@H](O)[C@H](CN3CC(F)(F)C3)[C@@H](c3ccccc3)[C@]1(c1ccc(C#N)cc1)O2` [288F, (5aR,6S,7S,8R,8aS)-5a-(4-cyanophenyl)-7-((3,3-difluoroazetidin-1-yl)methyl)-8,8a-dihydroxy-1-methoxy-6-phenyl-5a,7,8,8a-tetrahydro-6H-cyclopenta[4,5]furo[3,2-c]pyridine-3-carbonitrile], under setting [1], the IC50 is under 100 nM.

Regarding `COc1cncc2c1[C@]1(O)[C@H](O)[C@H](CN3CCC(F)(F)CC3)[C@@H](c3ccccc3)[C@]1(c1ccc(C#N)cc1)O2` (single isomer, unassigned) [113F], under setting [1], the IC50 is 100 to 1000 nM.

Regarding `O=C1O[C@@H]2[C@H]1[C@@H](c1ccccc1)[C@]1(c3ccc(Br)cc3)Oc3cc(Cl)cnc3[C@]21O` (racemic) [169F, Rac-(2aR,3S,3aR,8bS,8cR)-3a-(4-bromophenyl)-6-chloro-8b-hydroxy-3-phenyl-3,3a,8b,8c-tetrahydrooxeto[3″,2″:4′,5′]cyclopenta[1′,2′:4,5]furo[3,2-b]pyridin-2(2aH)-one], the IC50 under setting [1] is over 1000 nM.

In the case of `COc1cncc2c1[C@]1(O)[C@H](O)[C@H](S(=O)(=O)N3CCOCC3)[C@@H](c3ccccc3)[C@]1(c1ccc(C#N)cc1)O2` (single isomer, unassigned) [126F], the IC50 under setting [1] was in the range of 100 to 1000 nM.

For `COCCNC[C@H]1[C@@H](O)[C@@]2(O)c3c(OC)cncc3O[C@@]2(c2ccc(C#N)cc2)[C@@H]1c1ccccc1` [263F, 4-((4bS,5R,6S,7S,7aR)-4b,5-dihydroxy-4-methoxy-6-(((2-methoxyethyl)amino)methyl)-7-phenyl-4b,5,6,7-tetrahydro-7aH-cyclopenta[4,5]furo[2,3-c]pyridin-7a-yl)benzonitrile hydrochloride], the IC50 under setting [1] was under 100 nM.

`COCCN(C)C[C@H]1[C@@H](O)[C@@]2(O)c3c(OC)cncc3O[C@@]2(c2ccc(C#N)cc2)[C@@H]1c1ccccc1` (single isomer, unassigned) [261F]: under setting [1], the IC50 was under 100 nM.

On to `COc1cncc2c1[C@]1(O)[C@H](O)[C@H](CN3CC(F)(F)C3)[C@@H](c3ccccc3)[C@]1(c1ccc(C#N)cc1)O2` (single isomer, unassigned) [122F], for which the IC50 under setting [1] is 100 to 1000 nM.

On to `CN(C)C(=O)[C@H]1[C@@H](O)[C@@]2(O)c3nc(C(F)(F)F)c(O)cc3O[C@@]2(c2ccc(C#N)cc2)[C@@H]1c1ccccc1` (racemic) [29F, Rac-(5aR,6S,7R,8R,8aS)-5a-(4-cyanophenyl)-3,8,8a-trihydroxy-N,N-dimethyl-6-phenyl-2-(trifluoromethyl)-5a,7,8,8a-tetrahydro-6H-cyclopenta[4,5]furo[3,2-b]pyridine-7-carboxamide], for which, under setting [1], the IC50 is over 1000 nM.

Regarding `COc1cncc2c1[C@]1(O)[C@@H](CNC3COC3)[C@H](CO)[C@@H](c3ccccc3)[C@]1(c1ccc(C#N)cc1)O2` (racemic) [186F, Rac-4-((4bR,5R,6R,7S,7aR)-4b-hydroxy-6-(hydroxymethyl)-4-methoxy-5-((oxetan-3-ylamino)-methyl)-7-phenyl-4b,5,6,7-tetrahydro-7aH-cyclopenta[4,5]furo[2,3-c]pyridin-7a-yl)-benzonitrile], the IC50 under setting [1] is under 100 nM.

As for `COC(=O)[C@@H]1[C@@H](c2ccccc2)[C@]2(c3ccc(C#N)cc3)Oc3cc(Cl)cnc3[C@]2(O)[C@H]1C#N` (racemic) [50F, Rac-methyl (5aR,6S,7R,8R,8aR)-3-chloro-8-cyano-5a-(4-cyanophenyl)-8a-hydroxy-6-phenyl-5a,7,8,8a-tetrahydro-6H-cyclopenta[4,5]furo[3,2-b]pyridine-7-carboxylate], the IC50 under setting [1] lay within 100 to 1000 nM.

For the compound `N#Cc1ccc([C@@]23Oc4cc(Cl)cnc4[C@]2(O)[C@H](O)[C@H](CN2CCCC2)[C@H]3c2ccccc2)cc1` (racemic) [41Fb, rac-4-((5aR,6S,7S,8R,8aS)-3-chloro-8,8a-dihydroxy-6-phenyl-7-(pyrrolidin-1-ylmethyl)-6,7,8,8a-tetrahydro-5aH-cyclopenta[4,5]furo[3,2-b]pyridin-5a-yl)benzonitrile], the IC50 under setting [1] was in the range of 100 to 1000 nM.

On to `COc1nc(Cl)cc2c1[C@]1(O)[C@H](O)[C@H](CN)[C@@H](c3ccccc3)[C@]1(c1ccc(Br)cc1)O2` (racemic) [292F, Rac-(5aR,6S,7S,8R,8aS)-7-(aminomethyl)-5a-(4-bromophenyl)-3-chloro-1-methoxy-6-phenyl-5a,6,7,8-tetrahydro-8aH-cyclopenta[4,5]furo[3,2-c]pyridine-8,8a-diol], for which the IC50 under setting [1] was under 100 nM.

Take `COC(=O)[C@H]1[C@@H](O)[C@@]2(O)c3nn(C)cc3O[C@@]2(c2ccc(C#N)cc2)[C@@H]1c1ccccc1` (racemic) [21F, Rac-methyl (4aR,5S,6R,7R,7aS)-4a-(4-cyanophenyl)-7,7a-dihydroxy-2-methyl-5-phenyl-2,4a,5,6,7,7a-hexahydrocyclopenta[4,5]furo[3,2-c]pyrazole-6-carboxylate]: the IC50 under setting [1] is over 1000 nM.

Take `COc1cncc2c1[C@]1(O)[C@@H](CN)C[C@@H](c3ccccc3)[C@]1(c1ccc(Br)cc1)O2` (racemic) [172F, Rac-(4bR,5R,7S,7aR)-5-(aminomethyl)-7a-(4-bromophenyl)-4-methoxy-7-phenyl-5,6,7,7a-tetrahydro-4bH-cyclopenta[4,5]furo[2,3-c]pyridin-4b-ol]: the IC50 (MDA-MB-231, 72 h) is under 100 nM.

As to `COc1cncc2c1[C@]1(O)[C@H](O)[C@H](C(=O)N(C)CC(C)(C)O)[C@@H](c3ccccc3)[C@]1(c1ccc(Br)cc1)O2` (racemic) [251F, Rac-(4bS,5R,6R,7S,7aR)-7a-(4-bromophenyl)-4b,5-dihydroxy-N-(2-hydroxy-2-methylpropyl)-4-methoxy-N-methyl-7-phenyl-4b,6,7,7a-tetrahydro-5H-cyclopenta[4,5]furo[2,3-c]pyridine-6-carboxamide], under setting [1], the IC50 was under 100 nM.

In the case of `COc1cncc2c1[C@]1(O)[C@@H](CN3CC4(COC4)C3)[C@H](CO)[C@@H](c3ccccc3)[C@]1(c1ccc(Br)cc1)O2` (racemic) [compound 201, Rac-(4bR,5R,6R,7S,7aR)-5-((2-oxa-6-azaspiro[3.3]heptan-6-yl)methyl)-7a-(4-bromophenyl)-6-(hydroxymethyl)-4-methoxy-7-phenyl-5,6,7,7a-tetrahydro-4bH-cyclopenta[4,5]furo[2,3-c]pyridin-4b-ol], the IC50 under setting [1] was under 100 nM.

Take `N#Cc1ccc([C@@]23Oc4cc(Cl)cnc4[C@]2(O)[C@@H](O)[C@H](CN2CCCC2)[C@H]3c2ccccc2)cc1` (racemic) [41Fc, rac-4-((5aR,6S,7S,8S,8aS)-3-chloro-8,8a-dihydroxy-6-phenyl-7-(pyrrolidin-1-ylmethyl)-6,7,8,8a-tetrahydro-5aH-cyclopenta[4,5]furo[3,2-b]pyridin-5a-yl)benzonitrile]: the IC50 under setting [1] is over 1000 nM.
